Results as given in patent US20230091336A1, “CANNABINOID COMPOSITIONS” (priority 2020, published 2023).

Target: TRPM7 (Homo sapiens, UniProt Q96QT4)
Experiment: Whole-cell patch clamp of TRPM7 over-expressed in HEK293 cells
Format: cell-based
Set-up: expressed in transfected cells; host or cells: HEK293
Conditions: HEK293 over-expressing TRPM7
Method: Activation of TRPM7 over-expressed in HEK293 cells by perfusing the cells with intracellular solution containing 0 ATP and 0 Mg^2+, resulting in fast and maximal activation of TRPM7 outward currents at +40 mV is shown in FIG. 14.
Data from dose-response curves for the inhibition of TRPM7 currents (dark gray symbols) obtained in experiments shown in FIG. 14 and SOCE-mediated increases in intracellular Ca^2+ (light gray symbols) are shown in FIG. 15.

Sequence of TRPM7 (Q96QT4 whole entry, species assumed): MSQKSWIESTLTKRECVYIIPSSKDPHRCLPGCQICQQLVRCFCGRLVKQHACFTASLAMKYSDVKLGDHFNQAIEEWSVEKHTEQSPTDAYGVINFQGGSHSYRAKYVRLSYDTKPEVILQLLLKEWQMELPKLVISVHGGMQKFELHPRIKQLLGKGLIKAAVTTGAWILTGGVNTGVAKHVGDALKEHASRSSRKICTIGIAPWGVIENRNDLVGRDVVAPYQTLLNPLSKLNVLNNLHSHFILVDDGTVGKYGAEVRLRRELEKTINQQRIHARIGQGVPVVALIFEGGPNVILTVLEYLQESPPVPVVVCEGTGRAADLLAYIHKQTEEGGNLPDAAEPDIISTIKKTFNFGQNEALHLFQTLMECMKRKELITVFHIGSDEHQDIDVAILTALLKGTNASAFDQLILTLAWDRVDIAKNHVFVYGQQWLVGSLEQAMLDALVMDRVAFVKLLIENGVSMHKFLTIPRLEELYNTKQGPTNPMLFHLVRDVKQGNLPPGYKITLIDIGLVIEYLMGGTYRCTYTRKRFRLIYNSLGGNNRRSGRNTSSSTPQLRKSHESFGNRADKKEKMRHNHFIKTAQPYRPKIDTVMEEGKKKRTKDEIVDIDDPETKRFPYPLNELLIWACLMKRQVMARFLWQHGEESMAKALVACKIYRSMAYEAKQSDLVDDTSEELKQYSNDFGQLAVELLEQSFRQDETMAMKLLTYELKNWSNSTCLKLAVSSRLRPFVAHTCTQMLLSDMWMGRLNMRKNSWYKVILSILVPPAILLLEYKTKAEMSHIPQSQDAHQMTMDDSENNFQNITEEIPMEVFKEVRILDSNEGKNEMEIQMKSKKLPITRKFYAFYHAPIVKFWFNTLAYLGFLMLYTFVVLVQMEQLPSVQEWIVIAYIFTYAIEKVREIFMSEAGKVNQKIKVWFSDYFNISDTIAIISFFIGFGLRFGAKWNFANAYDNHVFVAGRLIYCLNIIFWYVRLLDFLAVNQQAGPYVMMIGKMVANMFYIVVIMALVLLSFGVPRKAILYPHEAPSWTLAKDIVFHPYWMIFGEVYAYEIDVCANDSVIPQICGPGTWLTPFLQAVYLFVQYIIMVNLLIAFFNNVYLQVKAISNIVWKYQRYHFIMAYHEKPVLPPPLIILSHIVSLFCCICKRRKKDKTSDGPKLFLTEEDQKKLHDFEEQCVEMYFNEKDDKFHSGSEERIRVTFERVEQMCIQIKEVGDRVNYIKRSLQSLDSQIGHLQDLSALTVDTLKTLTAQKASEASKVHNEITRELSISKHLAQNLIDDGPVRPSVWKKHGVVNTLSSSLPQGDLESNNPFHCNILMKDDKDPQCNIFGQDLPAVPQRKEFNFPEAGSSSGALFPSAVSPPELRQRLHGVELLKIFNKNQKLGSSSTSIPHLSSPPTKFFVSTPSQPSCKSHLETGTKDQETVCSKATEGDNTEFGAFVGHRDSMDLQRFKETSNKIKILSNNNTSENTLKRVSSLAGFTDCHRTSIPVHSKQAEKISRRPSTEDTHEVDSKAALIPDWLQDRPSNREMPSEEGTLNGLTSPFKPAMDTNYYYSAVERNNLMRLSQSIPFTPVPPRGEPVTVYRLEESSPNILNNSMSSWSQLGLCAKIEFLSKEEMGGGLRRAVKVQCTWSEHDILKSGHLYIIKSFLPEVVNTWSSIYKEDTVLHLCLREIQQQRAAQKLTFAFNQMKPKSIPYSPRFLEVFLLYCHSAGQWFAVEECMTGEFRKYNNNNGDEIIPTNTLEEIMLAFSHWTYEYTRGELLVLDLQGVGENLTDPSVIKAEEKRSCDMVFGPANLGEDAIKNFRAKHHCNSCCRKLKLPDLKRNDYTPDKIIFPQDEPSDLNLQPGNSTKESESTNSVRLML

CCCCCc1cc(O)c(C/C=C(\C)CCC=C(C)C)c(O)c1C(=O)O [CBGA, (E)-3-(3,7-dimethylocta-2,6-dien-1-yl)-2,4-dihydroxy-6-pentylbenzoic acid]
block of TRPM7 current at +40 mV (1, 3, 10 or 30 μM, 0 ATP, 0 Mg^2+): dose-dependent block | IC50 (FIG. 15, read-out: IC50 inhibition of TRPM7 currents): ~3 µM
